Test results: ChEMBL document CHEMBL1201862, “PubChem BioAssay data set” (2004)
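Step 1: Grow cells in 96-well plates. Step 2: Expose to compound for 48 hours at 5 concentrations. Step 3: Interpolate endpoints linearly; if unreached, use highest concentration. GI50 = concentration required for 50% inhibition of growth.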 Active and inactive are the calls of the source. No stated cut-off is given here; in the data, active = GI50 up to about 1.1 µM and inactive = higher.

Tests used:
Experiment in all cases: NCI-60 cell line screen, 48 h
ACHN = system: ACHN
A549 = system: A549
SK-MEL-28 = system: SK-MEL-28
LOX IMVI = system: LOX IMVI
TK-10 = system: TK-10
RPMI-8226 = system: RPMI-8226
786-0 = system: 786-0
CAKI-1 = system: CAKI-1
NCI-H226 = system: NCI-H226
SNB-19 = system: SNB-19
COLO 205 = system: COLO 205
UO-31 = system: UO-31
Hs-578T = system: Hs-578T
SW-620 = system: SW-620
Malme-3M = system: Malme-3M
MDA-MB-435 = system: MDA-MB-435
SN12C = system: SN12C
SK-MEL-2 = system: SK-MEL-2
A498 = system: A498

Compound	GI50 (ACHN)	GI50 (A549)	GI50 (SK-MEL-28)	GI50 (LOX IMVI)	GI50 (TK-10)	GI50 (RPMI-8226)	GI50 (786-0)	GI50 (CAKI-1)	GI50 (NCI-H226)	GI50 (SNB-19)	GI50 (COLO 205)	GI50 (UO-31)	GI50 (Hs-578T)	GI50 (SW-620)	GI50 (Malme-3M)	GI50 (MDA-MB-435)	GI50 (SN12C)	GI50 (SK-MEL-2)	GI50 (A498)
COc1ccc(/C=C2\CCc3cc(OC)c(OC)cc3C2=O)cc1	> 10 µM (inactive)	> 10 µM (inactive)	> 10 µM (inactive)	> 10 µM (inactive)	> 10 µM (inactive)	> 10 µM (inactive)	> 10 µM (inactive)	> 10 µM (inactive)	> 10 µM (inactive)	> 10 µM (inactive)	> 10 µM (inactive)	> 10 µM (inactive)	> 10 µM (inactive)	> 10 µM (inactive)	> 10 µM (inactive)	> 10 µM (inactive)	> 10 µM (inactive)	> 10 µM (inactive)	
N=C(N)NCC[C@H](NC(=O)OCCCCCn1ccc(=O)[nH]c1=O)C(=O)O	> 100 µM (inactive)	> 100 µM (inactive)	> 100 µM (inactive)	> 100 µM (inactive)	> 100 µM (inactive)	> 100 µM (inactive)	> 100 µM (inactive)	> 100 µM (inactive)	> 100 µM (inactive)	> 100 µM (inactive)	> 100 µM (inactive)	> 100 µM (inactive)	> 100 µM (inactive)	> 100 µM (inactive)	> 100 µM (inactive)	> 100 µM (inactive)	> 100 µM (inactive)	> 100 µM (inactive)	
COc1cc(/C=C2\CCC(C)/C(=C\c3cc(OC)c(OC)c(OC)c3)C2=O)cc(OC)c1OC (configuration not stated)	3.02 µM (inactive)	2.79 µM (inactive)	4.35 µM (inactive)	3.27 µM (inactive)	2.63 µM (inactive)	0.286 µM (active)	3.75 µM (inactive)	2.99 µM (inactive)		4.51 µM (inactive)	2.48 µM (inactive)	3.99 µM (inactive)	8.81 µM (inactive)	3.8 µM (inactive)		3.03 µM (inactive)	3.56 µM (inactive)	1.67 µM (inactive)	1.76 µM (inactive)
c1ccc(C2(c3ccccc3)S/C(=C3/SC(c4ccccc4)(c4ccccc4)c4ccccc43)c3ccccc32)cc1	> 100 µM (inactive)	> 100 µM (inactive)	> 100 µM (inactive)	> 100 µM (inactive)	> 100 µM (inactive)		> 100 µM (inactive)	> 100 µM (inactive)	> 100 µM (inactive)	> 100 µM (inactive)	> 100 µM (inactive)	> 100 µM (inactive)	> 100 µM (inactive)	> 100 µM (inactive)	> 100 µM (inactive)	> 100 µM (inactive)	> 100 µM (inactive)	> 100 µM (inactive)	> 100 µM (inactive)
CC12CC(c3ccccc3O1)C(C(=O)Nc1ccc(F)cc1)C(=O)N2 (configuration not stated)	> 100 µM (inactive)	91 µM (inactive)	> 100 µM (inactive)	> 100 µM (inactive)		40.3 µM (inactive)	> 100 µM (inactive)	> 100 µM (inactive)		> 100 µM (inactive)	> 100 µM (inactive)	65.9 µM (inactive)	> 100 µM (inactive)	> 100 µM (inactive)	> 100 µM (inactive)	> 100 µM (inactive)		> 100 µM (inactive)	> 100 µM (inactive)
C[C@]12Cc3cnn(-c4ccc(F)cc4)c3NC1CC[C@@H]1C2CC[C@@]2(C)C1CC[C@@H]2O (some centres not stated)	2.31 µM (inactive)	4.14 µM (inactive)	14.1 µM (inactive)		7.71 µM (inactive)		2.68 µM (inactive)	15.5 µM (inactive)	7.93 µM (inactive)	15.5 µM (inactive)	2.94 µM (inactive)	8.61 µM (inactive)	3.1 µM (inactive)	3.83 µM (inactive)	11.5 µM (inactive)	7.8 µM (inactive)	13.2 µM (inactive)		8.83 µM (inactive)
O=CC(O)C(O)C(O)C(O)COC(=O)NCCCCC(=O)C(F)(F)C(F)(F)C(F)(F)C(F)(F)C(F)(F)C(F)(F)C(F)(F)F (configuration not stated)	30.2 µM (inactive)	28.8 µM (inactive)	43.7 µM (inactive)	15.3 µM (inactive)	70.5 µM (inactive)	29.9 µM (inactive)	32.7 µM (inactive)	49.8 µM (inactive)		16 µM (inactive)	30.5 µM (inactive)	> 100 µM (inactive)	22.4 µM (inactive)	19.9 µM (inactive)	> 100 µM (inactive)	24.2 µM (inactive)	32.4 µM (inactive)	27.6 µM (inactive)	20.7 µM (inactive)
O=C(O)CCCC#CCCCC(=O)O	> 100 µM (inactive)	> 100 µM (inactive)	> 100 µM (inactive)	> 100 µM (inactive)	> 100 µM (inactive)		> 100 µM (inactive)	> 100 µM (inactive)		> 100 µM (inactive)	> 100 µM (inactive)	> 100 µM (inactive)	> 100 µM (inactive)		> 100 µM (inactive)	> 100 µM (inactive)	> 100 µM (inactive)	> 100 µM (inactive)	> 100 µM (inactive)
CCOC(=O)c1ccc(-c2onc(C)c2Br)[nH]1	37.6 µM (inactive)	33 µM (inactive)	> 100 µM (inactive)		56.9 µM (inactive)	86.7 µM (inactive)	43.4 µM (inactive)	50.8 µM (inactive)		66.1 µM (inactive)	50.2 µM (inactive)	32.7 µM (inactive)	70.5 µM (inactive)	60 µM (inactive)	79.6 µM (inactive)	85.1 µM (inactive)		76 µM (inactive)	49.9 µM (inactive)
CCCCCCCCCCCCCCCCCCOc1ccc(/C=C/C2=[N+](CCCl)CCO2)cc1	> 100 µM (inactive)	> 100 µM (inactive)	> 100 µM (inactive)	> 100 µM (inactive)	> 100 µM (inactive)	> 100 µM (inactive)	> 100 µM (inactive)	> 100 µM (inactive)		> 100 µM (inactive)	70.1 µM (inactive)	> 100 µM (inactive)	> 100 µM (inactive)	> 100 µM (inactive)	> 100 µM (inactive)	> 100 µM (inactive)	> 100 µM (inactive)	> 100 µM (inactive)	> 100 µM (inactive)
COc1cc2c(cc1O)CCN[C@@]21CS[C@H]2c3c(OC(C)=O)c(C)c4c(c3C(COC1=O)N1C2C2NC(Cc3cc(C)c(OC)c(O)c32)[C@@H]1O)OCO4 (some centres not stated)	< 0.01 µM (active)	< 0.01 µM (active)	< 0.01 µM (active)		< 0.01 µM (active)	< 0.01 µM (active)	< 0.01 µM (active)	< 0.01 µM (active)		< 0.01 µM (active)	< 0.01 µM (active)	< 0.01 µM (active)	< 0.01 µM (active)	< 0.01 µM (active)		< 0.01 µM (active)		< 0.01 µM (active)	< 0.01 µM (active)
COc1cc(C2c3c(ccc4ccccc34)C(=O)C3CCC(=O)N32)cc(OC)c1OC (configuration not stated)	> 50 µM (inactive)	> 50 µM (inactive)	> 50 µM (inactive)			46.8 µM (inactive)	> 50 µM (inactive)	> 50 µM (inactive)	> 50 µM (inactive)	> 50 µM (inactive)	> 50 µM (inactive)	> 50 µM (inactive)	> 50 µM (inactive)	> 50 µM (inactive)		> 50 µM (inactive)	> 50 µM (inactive)	> 50 µM (inactive)	> 50 µM (inactive)
